We go through 10 compounds from patent US20250034135A1, “ANTI-APOPTOTIC PROTEIN BCL-2 INHIBITOR, PHARMACEUTICAL COMPOSITION AND USES THEREOF” (HANGZHOU HEALZEN THERAPEUTICS CO., LTD., priority 2021, published 2025).

Chain of BCL2 (P10415 whole entry): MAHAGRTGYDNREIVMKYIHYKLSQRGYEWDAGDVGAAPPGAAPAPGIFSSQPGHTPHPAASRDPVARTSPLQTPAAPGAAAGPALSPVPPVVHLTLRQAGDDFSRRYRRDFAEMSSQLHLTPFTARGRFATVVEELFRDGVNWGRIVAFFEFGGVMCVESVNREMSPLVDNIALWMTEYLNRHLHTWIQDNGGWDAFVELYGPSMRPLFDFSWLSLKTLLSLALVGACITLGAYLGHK

The target in this experiment is BCL2 (Homo sapiens (Human), UniProt P10415). Kind of experiment: Molecular level activity test of anti-apoptotic protein BCL2 (HTRF, binding to Bim peptide). The conditions noted are these: HTRF, binding of BCL2 to Bim peptide; read-out: BCL2 nM (inhibitory activity, IC50). Summed up:
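Compound (2% DMSO) was mixed with His-tagged recombinant BCL2 and biotinylated Bim peptide for 1 h. Detection used anti-His antibody plus streptavidin-XL665 for 4 h at room temperature, read by time-resolved fluorescence.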
For `CC(C)c1ccccc1[C@@H]1CCCN1C1CC2(CCN(c3cc(N4CCOc5nc6[nH]ccc6cc54)c(C(=O)NS(=O)(=O)c4cc([N+](=O)[O-])c(NC[C@H]5CC[C@](C)(O)CC5)c5[nH]cnc45)cn3)CC2)C1` [compound 081, 4-(2,3-dihydropyrrolo[3′,2′:5,6]pyridino[2,3-b][1,4]oxazin-1 (6H)-yl)-N-((7-((((1r,4r)-4-hydroxy-4-methylcyclohexyl)methyl)amino)-6-nitro-1H-benzo[d]imidazol-4-yl)sulfonyl)-6-(2-((S)-2-(2-isopropylphenyl)pyrrolidin-1-yl)-7-azaspiro[3.5]non-7-yl) nicotinamide], the IC50 was under 10 nM.

On to `CC(C)c1ccccc1[C@@H]1CCCN1C1CC2(CCN(c3cc(N4CCOc5nc6[nH]ccc6cc54)c(C(=O)NS(=O)(=O)c4cc([N+](=O)[O-])c(NC[C@H]5CC[C@](C)(O)CC5)c5[nH]cnc45)cc3F)CC2)C1` [compound 082, 2-(2,3-dihydropyrrolo[3′,2′:5,6]pyridino[2,3-b][1,4]oxazin-1 (6H)-yl)-5-fluoro-N-((7-((((1r,4r)-4-hydroxy-4-methylcyclohexyl)methyl)amino)-6-nitro-1H-benzo[d]imidazol-4-yl)sulfonyl)-4-(2-((S)-2-(2-isopropylphenyl)pyrrolidin-1-yl)-7-azaspiro[3.5]non-7-yl)benzamide], for which the IC50 is under 10 nM.

With `CC(C)c1ccccc1[C@@H]1CCCN1C1CC2(CCN(c3cc(N4CCOc5nc6[nH]ccc6cc54)c(C(=O)NS(=O)(=O)c4cc([N+](=O)[O-])c(NCC5(F)CCN(C(C)C)CC5)c5[nH]cnc45)cn3)CC2)C1` [compound 083, (S)-4-(2,3-dihydropyrrolo[3′,2′:5,6]pyridino[2,3-b][1,4]oxazin-1 (6H)-yl)-N-((7-(((4-fluoro-1-isopropylpiperid-4-yl)methyl)amino)-6-nitro-1H-benzo[d]imidazol-4-yl)sulfonyl)-6-(2-(2-(2-isopropylphenyl)pyrrolidin-1-yl)-7-azaspiro[3.5]non-7-yl) nicotinamide], the IC50 was under 10 nM.

On to `CC(C)c1ccccc1[C@@H]1CCCN1C1CC2(CCN(c3cc(N4CCOc5nc6[nH]ccc6cc54)c(C(=O)NS(=O)(=O)c4cc([N+](=O)[O-])c(NCC5(F)CCN(C(C)C)CC5)c5[nH]cnc45)cc3F)CC2)C1` [compound 084, (S)-2-(2,3-dihydropyrrolo[3′,2′:5,6]pyridino[2,3-b][1,4]oxazin-1 (6H)-yl)-5-fluoro-N-((7-(((4-fluoro-1-isopropylpiperid-4-yl)methyl)amino)-6-nitro-1H-benzo[d]imidazol-4-yl)sulfonyl)-4-(2-(2-(2-isopropylphenyl)pyrrolidin-1-yl)-7-azaspiro[3.5]non-7-yl)benzamide], for which the half-maximal inhibitory concentration (IC50) was under 10 nM.

Consider `CC(C)c1ccccc1[C@@H]1CCCN1C1CC2(CCN(c3ccc(C(=O)NS(=O)(=O)c4cc([N+](=O)[O-])c(NC[C@H]5CC[C@](C)(O)CC5)c5[nH]cnc45)c(N4CCCOc5nc6[nH]ccc6cc54)c3)CC2)C1` [compound 085, 2-(3,4-dihydro-2H-pyrrolo[3′,2′:5,6]pyridino[2,3-b][1,4]oxazacyclohept-1 (7H)-yl)-N-((7-((((1r,4r)-4-hydroxy-4-methylcyclohexyl)methyl)amino)-6-nitro-1H-benzo[d]imidazol-4-yl)sulfonyl)-4-(2-((S)-2-(2-isopropylphenyl)pyrrolidin-1-yl)-7-azaspiro[3.5]non-7-yl)benzamide], for which the IC50 is under 10 nM.

Regarding `CC(C)c1ccccc1[C@@H]1CCCN1C1CC2(CCN(c3ccc(C(=O)NS(=O)(=O)c4cc([N+](=O)[O-])c(NCC5(F)CCN(C(C)C)CC5)c5[nH]cnc45)c(N4CCCOc5nc6[nH]ccc6cc54)c3)CC2)C1` [compound 086, (S)-2-(3,4-dihydro-2H-pyrrolo[3′,2′:5,6]pyridino[2,3-b][1,4]oxazacyclohept-1 (7H)-yl)-N-((7-(((4-fluoro-1-isopropylpiperid-4-yl)methyl)amino)-6-nitro-1H-benzo[d]imidazol-4-yl)sulfonyl)-4-(2-(2-(2-isopropylphenyl)pyrrolidin-1-yl)-7-azaspiro[3.5]non-7-yl)benzamide], the IC50 was under 10 nM.

As for `CC(C)c1ccccc1[C@@H]1CCCN1C1CC2(CCN(c3ccc(C(=O)NS(=O)(=O)c4cc([N+](=O)[O-])c(NCC5(F)CCOCC5)c5[nH]cnc45)c(N4CCOc5nc6[nH]ccc6cc54)c3)CC2)C1` [compound 087, (S)-2-(2,3-dihydropyrrolo[3′,2′:5,6]pyridino[2,3-b][1,4]oxazin-1 (6H)-yl)-N-((7-(((4-fluorotetrahydro-2H-pyran-4-yl)methyl)amino)-6-nitro-1H-benzo[d]imidazol-4-yl)sulfonyl)-4-(2-(2-(2-isopropylphenyl)pyrrolidin-1-yl)-7-azaspiro[3.5]non-7-yl)benzamide], the IC50 was under 10 nM.

Turning to `CC(C)c1ccccc1[C@@H]1CCCN1C1CC2(CCN(c3ccc(C(=O)NS(=O)(=O)c4cc([N+](=O)[O-])c(NCC5(F)CCOCC5)c5[nH]cnc45)c(N4CCCOc5nc6[nH]ccc6cc54)c3)CC2)C1` [compound 088, (S)-2-(3,4-dihydro-2H-pyrrolo[3′,2′:5,6]pyridino[2,3-b][1,4]oxazacyclohept-1 (7H)-yl)-N-((7-(((4-fluorotetrahydro-2H-pyran-4-yl)methyl)amino)-6-nitro-1H-benzo[d]imidazol-4-yl)sulfonyl)-4-(2-(2-(2-isopropylphenyl)pyrrolidin-1-yl)-7-azaspiro[3.5]non-7-yl)benzamide], the IC50 is under 10 nM.

Consider `COc1ccc(CN2CCN(C3CC4(CCN(c5ccc(C(=O)NS(=O)(=O)c6cc([N+](=O)[O-])c(NC[C@H]7CC[C@](C)(O)CC7)c7[nH]cnc67)c(N6CCOc7nc8[nH]ccc8cc76)c5)CC4)C3)C(c3ccccc3C(C)C)C2)cc1` (stereo partly shown) [compound 089, 2-(2,3-dihydropyrrolo[3′,2′:5,6]pyridino[2,3-b][1,4]oxazin-1 (6H)-yl)-N-((7-((((1r,4r)-4-hydroxy-4-methylcyclohexyl)methyl)amino)-6-nitro-1H-benzo[d]imidazol-4-yl)sulfonyl)-4-(2-(2-(2-isopropylphenyl)-4-(4-methoxybenzyl)piperazin-1-yl)-7-azaspiro[3.5]non-7-yl)benzamide], for which the IC50 is under 10 nM.

With `COc1ccc(CN2CCN(C3CC4(CCN(c5ccc(C(=O)NS(=O)(=O)c6cc([N+](=O)[O-])c(NC[C@H]7CC[C@](C)(O)CC7)c7[nH]cnc67)c(N6CCCOc7nc8[nH]ccc8cc76)c5)CC4)C3)C(c3ccccc3C(C)C)C2)cc1` (stereo partly shown) [compound 090, 2-(3,4-dihydro-2H-pyrrolo[3′,2′:5,6]pyridino[2,3-b][1,4]oxazacyclohept-1 (7H)-yl)-N-((7-((((1r,4r)-4-hydroxy-4-methylcyclohexyl)methyl)amino)-6-nitro-1H-benzo[d]imidazol-4-yl)sulfonyl)-4-(2-(2-(2-isopropylphenyl)-4-(4-methoxybenzyl)piperazin-1-yl)-7-azaspiro[3.5]non-7-yl)benzamide], the IC50 is under 10 nM.
